Usually EC50 stands for the concentration at which the effect is half-maximal. A word on the IC50: it is the concentration at which inhibition is half-maximal. Read a low IC50 as greater potency. What is called inhibition is the drop in the measured response relative to a control, in per cent.

The nature of test [1]: DPPH antioxidant assay. To be noted: DPPH 110 µM, 30 min incubation, 517 nm; read-out: DPPH scavenging EC50. An excerpt:
The DPPH method presents several advantages, such as low cost, ease of performing experiments, high reproducibility, applicability at room temperature, and automation possibilities. In contrast to other traditional antioxidant assays that require additional treatments of sample and reagents, such as high temperatures and/or oxygen supply, the DPPH method requires mild experimental conditions[35],[36]. These features have established it as a convenient and effective option for researchers in the evaluation of antioxidant properties. In this study, the antioxidant activities of the synthesized compounds 6a-j were assessed using the DPPH assay, and the obtained results are represented as EC50 values in Table 2. In this assay, quercetin was used as positive control to compare the antioxidant capacity of the tested compounds.
The antioxidant activity of the synthesized compounds were determined based on the DPPH method. 2,2-Diphenyl-1-picrylhydrazyl (DPPH) and quercetin were obtained from Sigma Aldrich company. In this assay, quercetin was used as the control compound. Initially, stock solutions of the tested compounds with concentration of 40 mM were prepared in dimethyl sulfoxide (DMSO) solvent, and then the necessary dilutions were made in methanol to prepare the required concentrations ranging from 25 to 400 µM. This test was conducted in 96-well plates. Each well contained 180 μL of DPPH (110 μM) and 20 μL of different concentrations of the tested compounds, which were incubated for 30 min under dark condition. Then, the absorbance changes were measured at a wavelength of 517 nm using the Synergy HTX Multi-Mode Reader-BioTek. EC50 values for the compounds whose free radical trapping percentage was more than 50% at a concentration of 400 µM were obtained using CurveExpert software. Experiments were repeated three times for each concentration and the results were reported as the mean (m) ± standard deviation (SD).
(In general: The DPPH test is a chemical assay of radical scavenging.)

The target in test [2] is eqBuChE (butyrylcholinesterase from equine serum) (Equus caballus, UniProt P81908). Put plainly: biochemical. It counts as biochemical. To be noted: for IC50: mean ± SD of three independent experiments; for inhibition at 50 µM: read-out: eqBuChE: % inhibition; for Selectivity index to BuChE (SI): IC50 for AChE/ IC50 for BuChE.
Test [3] has as its target T1, eelAChE (acetylcholinesterase from the electric eel) (Electrophorus electricus, UniProt O42275).
T1 construct: purchased Sigma Aldrich
As to the kind of experiment: biochemical. To be noted: for IC50: mean ± SD of three independent experiments; for inhibition at 50 µM: read-out: eelAChE: % inhibition.

Test [4] has as its target eqBuChE (Equus caballus, UniProt P81908). Put plainly: Kinetic study of eqBuChE inhibition (Lineweaver-Burk plot). The class given is biochemical, equine. To be noted: inhibitor 0.5, 1, 5, 10, and 20 µM. As to the method: (§1) Kinetic study was performed to investigate the inhibition mechanism of eelAChE and eqBuChE using graphical analysis of the reciprocal Lineweaver–Burk plot. […] The kinetic studies were performed in the absence (control) and presence of different concentrations of compound 6h (5, 10, 20, 40, and 80 μM) for eelAChE and different concentrations of compound 6f (0.5, 1, 5, 10, and 20 μM) for eqBuChE. The control wells contained no concentration of 6h and 6f as inhibitors.
(§2) The initial velocity (V) of the substrates hydrolysis was measured at different concentrations of acetylthiocholine iodide (ATCI) or butyrylthiocholine iodide (BTCI) (1.7–20 mM), in the absence (control) and presence of different concentrations of the compound 6h (5, 10, 20, 40, and 80 μM) for AChE and different concentrations of compound 6f (0.5, 1, 5, 10, and 20 μM) for BuChE. Then, the double reciprocal plot of 1/V versus 1/S was drawn to determine the inhibition type of AChE and BuChE. Data analysis was performed using Microsoft Office Excel 2016.

The target of test [5] is T2, eelAChE (Electrophorus electricus, UniProt O42275).
T2 construct: purchased Sigma Aldrich
Put plainly: Kinetic study of eelAChE inhibition (Lineweaver-Burk plot). The class given is biochemical, electric eel. To be noted: inhibitor 5, 10, 20, 40, and 80 µM. As for the experimental part:
as §1, §2

Bounds are passed on as bounds.

T1 sequence (O42275 24-633): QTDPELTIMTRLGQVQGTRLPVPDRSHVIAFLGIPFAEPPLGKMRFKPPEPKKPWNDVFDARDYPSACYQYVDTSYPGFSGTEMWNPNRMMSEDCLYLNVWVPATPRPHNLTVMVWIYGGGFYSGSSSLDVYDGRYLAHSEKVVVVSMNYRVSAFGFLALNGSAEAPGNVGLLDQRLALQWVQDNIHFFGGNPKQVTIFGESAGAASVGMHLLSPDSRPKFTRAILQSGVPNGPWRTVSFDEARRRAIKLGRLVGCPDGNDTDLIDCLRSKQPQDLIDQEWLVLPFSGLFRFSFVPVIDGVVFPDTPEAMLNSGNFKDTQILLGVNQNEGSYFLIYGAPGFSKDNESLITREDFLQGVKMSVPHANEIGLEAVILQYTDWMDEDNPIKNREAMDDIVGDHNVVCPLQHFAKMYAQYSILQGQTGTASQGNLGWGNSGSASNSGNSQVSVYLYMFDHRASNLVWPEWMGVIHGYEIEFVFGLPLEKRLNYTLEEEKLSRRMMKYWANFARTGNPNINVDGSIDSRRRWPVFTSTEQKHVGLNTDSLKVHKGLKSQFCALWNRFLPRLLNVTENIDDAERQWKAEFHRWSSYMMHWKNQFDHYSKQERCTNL
Chain of eqBuChE (butyrylcholinesterase from equine serum) (P81908 whole entry): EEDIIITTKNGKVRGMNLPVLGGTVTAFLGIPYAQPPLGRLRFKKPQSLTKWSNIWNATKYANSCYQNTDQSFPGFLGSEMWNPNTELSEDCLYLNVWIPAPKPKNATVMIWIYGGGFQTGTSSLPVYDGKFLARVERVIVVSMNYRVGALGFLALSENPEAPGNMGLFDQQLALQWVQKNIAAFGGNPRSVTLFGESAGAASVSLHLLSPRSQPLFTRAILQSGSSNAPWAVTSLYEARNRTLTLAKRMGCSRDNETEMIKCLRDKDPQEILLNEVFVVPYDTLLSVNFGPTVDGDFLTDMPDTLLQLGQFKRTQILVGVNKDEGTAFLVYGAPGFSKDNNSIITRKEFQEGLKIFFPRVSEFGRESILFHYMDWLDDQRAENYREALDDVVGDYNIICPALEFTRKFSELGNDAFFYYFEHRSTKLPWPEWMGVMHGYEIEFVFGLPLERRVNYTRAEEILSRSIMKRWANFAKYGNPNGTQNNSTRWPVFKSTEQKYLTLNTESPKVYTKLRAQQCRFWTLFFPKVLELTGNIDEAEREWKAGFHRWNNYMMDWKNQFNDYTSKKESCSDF
T2 sequence (O42275 24-633): as the sequence (O42275 24-633) above
Chain of eqBuChE (P81908 whole entry): as the sequence (P81908 whole entry) above

As to `Brc1ccccc1Nc1nc(Nc2ccccc2Br)c2ccccc2n1` [Compound 6a, N^2, N^4-bis(2-bromophenyl) quinazoline-2,4-diamine], the EC50 in test [1] is above 400 µM. Besides, the IC50 in test [2] and in test [3] was above 50 µM throughout. Also, the figures for the inhibition at 50 µM in test [2] and in test [3] were 30.6 ± 2.15% and 12.4 ± 2.74%, respectively.

Consider `Oc1ccccc1Nc1nc(Nc2ccccc2O)c2ccccc2n1` [Compound 6b, 2,2′-(quinazoline-2,4-diylbis(azanediyl))diphenol], for which the half-maximal effective concentration (EC50) in test [1] was determined as 26.1 µM. Moreover, in test [2], the 50% inhibitory concentration (IC50) was determined as 37.2 µM and the inhibition at 50 µM came to 52.3 ± 2.17%. Also, in test [3], the IC50 is above 50 µM and the inhibition at 50 µM was 8.7 ± 1.15%.

In the case of `Nc1ccccc1Nc1nc(Nc2ccccc2N)c2ccccc2n1` [Compound 6c, N^1, N^1′-(quinazoline-2,4-diyl)bis(benzene-1,2-diamine)], in test [1], the EC50 was determined as 28.4 µM. Besides, in test [2], the IC50 came out at 26.9 µM and the inhibition at 50 µM turned out to be 64.1 ± 2.32%. Besides, in test [3], the IC50 was above 50 µM and the inhibition at 50 µM was found to be 6.15 ± 3.15%.

For `Brc1cccc(Nc2nc(Nc3cccc(Br)c3)c3ccccc3n2)c1` [Compound 6d, N^2,N^4-bis(3-bromophenyl)quinazoline-2,4-diamine], the concentration giving a half-maximal response (EC50) in test [1] is above 400 µM. In test [2], the IC50 was determined as 41.7 µM and the inhibition at 50 µM is 56.1 ± 4.17%. In test [3], the IC50 is above 50 µM and the inhibition at 50 µM came out at 23.5 ± 1.03%.

On to `FC(F)(F)c1cccc(Nc2nc(Nc3cccc(C(F)(F)F)c3)c3ccccc3n2)c1` [Compound 6e, N^2, N^4-bis(3-(trifluoromethyl)phenyl)quinazoline-2,4-diamine], for which, in test [1], the EC50 was above 400 µM. Moreover, the results for the IC50 in test [2] and in test [3] were 43.5 µM and above 50 µM, respectively. Also, the inhibition at 50 µM was found to be 58.8 ± 1.37% in test [2] and 16.5 ± 3.05% in test [3].

Turning to `Cc1ccc(Nc2nc(Nc3ccc(C)cc3)c3ccccc3n2)cc1` [Compound 6f, N^2, N^4-di-p-tolylquinazoline-2,4-diamine], the “Inhibition type of eqBuChE” value in test [4] was “mixed-type inhibition”. For the same molecule, the concentration for a half-maximal effect (EC50) in test [1] was above 400 µM. For the same molecule, in test [2], the “eqBuChE inhibitory activity, times more active than donepezil” value worked out at 20 times; the “Selectivity index to BuChE (SI)” value is recorded as above 96; the IC50 came to 0.52 µM; the inhibition at 50 µM was found to be 96.7 ± 2.57%. Further, in test [3], the IC50 was above 50 µM and the inhibition at 50 µM was determined as 40.3 ± 3.55%.

In the case of `COc1ccc(Nc2nc(Nc3ccc(OC)cc3)c3ccccc3n2)cc1` [Compound 6g, N^2, N^4-bis(4-methoxyphenyl)quinazoline-2,4-diamine], in test [1], the half-maximal effective concentration (EC50) was above 400 µM. Besides, the results for the concentration for half-maximal inhibition (IC50) in test [2] and in test [3] were 48.3 µM and above 50 µM, respectively. In addition, the figures for the inhibition at 50 µM in test [2] and in test [3] were 51.5 ± 3.25% and 11 ± 4.64%, respectively.

Consider `COc1ccc(Nc2nc(Nc3ccc(OC)cc3OC)c3ccccc3n2)c(OC)c1` [Compound 6h, N^2, N^4-bis(2,4-dimethoxyphenyl)quinazoline-2,4-diamine], for which, in test [5], the “Inhibition type of eelAChE” value was “mixed-type inhibition”. Moreover, the concentration for a half-maximal effect (EC50) in test [1] was above 400 µM. For the same molecule, in test [2], the “Selectivity index to BuChE (SI)” value is reported as 7.1, it took 6.74 µM to reach half-maximal inhibition (IC50) and the inhibition at 50 µM stood at 87.5 ± 3.08%. Moreover, in test [3], half-maximal inhibition (IC50) required 47.6 µM and the inhibition at 50 µM was 52.4 ± 2.33%.

As to `COc1ccc(Cl)cc1Nc1nc(Nc2cc(Cl)ccc2OC)c2ccccc2n1` [Compound 6i, N^2, N^4-bis(5-chloro-2-methoxyphenyl)quinazoline-2,4-diamine], in test [1], the EC50 is above 400 µM. The IC50 in test [2] and in test [3] was above 50 µM each time. Moreover, the inhibition at 50 µM in test [2] is 26.6 ± 3.19%; in test [3] it was 13.7 ± 1.94%.

Turning to `Cc1ccc(O)c(Nc2nc(Nc3cc(C)ccc3O)c3ccccc3n2)c1` [Compound 6j, 2'-(quinazoline-2,4-diylbis(azanediyl))bis(4-methylphenol)], the EC50 in test [1] is 23.2 µM. Besides, in test [2], the “Selectivity index to BuChE (SI)” value is above 13.6, the IC50 was determined as 3.65 µM and the inhibition at 50 µM stood at 91.6 ± 3.26%. In test [3], the half-maximal inhibitory concentration (IC50) is above 50 µM and the inhibition at 50 µM turned out to be 45.2 ± 2.91%.

For the molecule `O=c1c(O)c(-c2ccc(O)c(O)c2)oc2cc(O)cc(O)c12` [Quercetin, quercetin, reference compound], the EC50 in test [1] was 8.9 µM.

These data come from article PMC11227574, “Synthesis, biological evaluation, molecular docking, and MD simulation of novel 2,4-disubstituted quinazoline derivatives as selective butyrylcholinesterase inhibitors and antioxidant agents” (Scientific Reports, 2024).
